Experimental data reported in article PMC10714400, “Antimicrobial Peptide–Peptoid Hybrids with and without Membrane Disruption” (ACS Infectious Diseases, 2023).
Like-named read-outs stand apart in the source and are kept apart here.

What was measured:
PA14 4.18 (pmrB) = tested on: PA14 4.18 (pmrB)
How it was run: (§1)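 Microdilution MIC in MH broth; inocula from overnight LB cultures at 37 °C, about 5 × 10^5 CFU per well. Plates stood ca. 18 h at 37 °C, then MTT (1 mg/mL) was added for 20–30 min at RT, and wells remaining yellow marked inhibition.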

P. aeruginosa PAO1 = tested on: P. aeruginosa PAO1
How it was run: as §1

K. pneumoniae NCTC418 = tested on: K. pneumoniae NCTC418
How it was run: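 MTT added (20–30 min, room temperature); MIC read by eye as lowest concentration inhibiting visible growth (yellow). Polymyxin B positive control from 16 μg/mL.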

S. aureus COL (MRSA) = tested on: S. aureus COL (MRSA)
How it was run: as §1

E. cloacae = tested on: E. cloacae
How it was run: as §1

PA14 4.13 (phoQ) = tested on: PA14 4.13 (phoQ)
How it was run: as §1

[1] = tested on: ZEM-1A (clinical MDR P. aeruginosa isolate)
How it was run: as §1

PA14 2P4 (pmrB) = conditions: CSV
How it was run: as §1

[2] = diluted MH ([…] MH, pH 8.5) per Table 1 footnote b, 16–20 h at 37 °C
[3] = full MH, pH 7.4, 16–20 h at 37 °C

With “H-KKLLKLLKLLL-NH2 [ln65, reference compound]” the “MIC P. aeruginosa PA14 4.18, […] MH at pH 8.5” value (PA14 4.18 (pmrB); CSV, […] MH at pH 8.5) was 3 ug/mL, the “MIC P. aeruginosa PA14 4.18, full MH at pH 7.4” value (PA14 4.18 (pmrB); CSV, full MH at pH 7.4) was 32 ug/mL and the “MIC PA14 4.18 (pmrB)” value (PA14 4.18 (pmrB); MH pH 7.4, 16–20 h at 37 °C) was 32 µg/mL. The “MIC P. aeruginosa PA14 4.18” value (PA14 4.18 (pmrB); Table S3, […] MH at pH 8.5) was 2 to 4 µg/mL, the “MIC P. aeruginosa PAO1, […] MH at pH 7.4” value (P. aeruginosa PAO1; CSV, […] MH at pH 7.4) was 4 ug/mL and the “MIC P. aeruginosa PAO1, […] MH at pH 8.5” value (P. aeruginosa PAO1; CSV, […] MH at pH 8.5) was 4 ug/mL. The “MIC P. aeruginosa PAO1, full MH at pH 7.4” value (P. aeruginosa PAO1; CSV, full MH at pH 7.4) was 3 ug/mL, the “MIC P. aeruginosa PAO1, full MH at pH 8.5” value (P. aeruginosa PAO1; CSV, full MH at pH 8.5) was 16 ug/mL and the “MIC P. aeruginosa PAO1 […] 7.4” value (P. aeruginosa PAO1; Table S2, […] MH, pH 7.4) was 4 µg/mL. For the same substance, the “MIC P. aeruginosa PAO1 […] 8.5” value (P. aeruginosa PAO1; Table S2, […] MH, pH 8.5) was 4 µg/mL, the “MIC P. aeruginosa PAO1 Full MH 7.4” value (P. aeruginosa PAO1; Table S2, full MH, pH 7.4) was 2 to 4 µg/mL and the “MIC P. aeruginosa PAO1 Full MH 8.5” value (P. aeruginosa PAO1; Table S2, full MH, pH 8.5) was 16 µg/mL. The “MIC P. aeruginosa PAO1 […]” value (P. aeruginosa PAO1; [2]) was 4 µg/mL, the “MIC P. aeruginosa PAO1 Full” value (P. aeruginosa PAO1; [3]) was 2 to 4 µg/mL and the “MIC K. pneumoniae NCTC418, […] MH at pH 7.4” value (K. pneumoniae NCTC418; CSV, […] MH at pH 7.4) was 3 ug/mL. For the same substance, the “MIC K. pneumoniae NCTC418, […] MH at pH 8.5” value (K. pneumoniae NCTC418; CSV, […] MH at pH 8.5) was 2 ug/mL, the “MIC K. pneumoniae NCTC418, full MH at pH 7.4” value (K. pneumoniae NCTC418; CSV, full MH at pH 7.4) was 4 ug/mL and the “MIC K. pneumoniae NCTC418, full MH at pH 8.5” value (K. pneumoniae NCTC418; CSV, full MH at pH 8.5) was 8 ug/mL. For the same substance, the “MIC K. pneumoniae NCTC418 […] 7.4” value (K. pneumoniae NCTC418; Table S2, […] MH, pH 7.4) was 2 to 4 µg/mL, the “MIC K. pneumoniae NCTC418 […] 8.5” value (K. pneumoniae NCTC418; Table S2, […] MH, pH 8.5) was 2 µg/mL and the “MIC K. pneumoniae NCTC418 Full MH 7.4” value (K. pneumoniae NCTC418; Table S2, full MH, pH 7.4) was 4 µg/mL. For the same substance, the “MIC K. pneumoniae NCTC418 Full MH 8.5” value (K. pneumoniae NCTC418; Table S2, full MH, pH 8.5) was 8 µg/mL, the “MIC K. pneumoniae NCTC418 […]” value (K. pneumoniae NCTC418; [2]) was 2 to 4 µg/mL and the “MIC K. pneumoniae NCTC418 Full” value (K. pneumoniae NCTC418; [3]) was 4 µg/mL. For the same substance, the “MIC S. aureus COL (MRSA), […] MH at pH 7.4” value (S. aureus COL (MRSA); CSV, […] MH at pH 7.4) was 2 ug/mL, the “MIC S. aureus COL (MRSA), […] MH at pH 8.5” value (S. aureus COL (MRSA); CSV, […] MH at pH 8.5) was 2 ug/mL and the “MIC S. aureus COL (MRSA), full MH at pH 7.4” value (S. aureus COL (MRSA); CSV, full MH at pH 7.4) was 4 ug/mL. The “MIC S. aureus COL (MRSA), full MH at pH 8.5” value (S. aureus COL (MRSA); CSV, full MH at pH 8.5) was 8 ug/mL, the “MIC S. aureus COL (MRSA) […] 7.4” value (S. aureus COL (MRSA); Table S2, […] MH, pH 7.4) was 2 µg/mL and the “MIC S. aureus COL (MRSA) […] 8.5” value (S. aureus COL (MRSA); Table S2, […] MH, pH 8.5) was 2 µg/mL. For the same substance, the “MIC S. aureus COL (MRSA) Full MH 7.4” value (S. aureus COL (MRSA); Table S2, full MH, pH 7.4) was 4 µg/mL, the “MIC S. aureus COL (MRSA) Full MH 8.5” value (S. aureus COL (MRSA); Table S2, full MH, pH 8.5) was 8 µg/mL and the “MIC S. aureus COL (MRSA) […]” value (S. aureus COL (MRSA); [2]) was 2 µg/mL. The “MIC S. aureus COL (MRSA) Full” value (S. aureus COL (MRSA); [3]) was 4 µg/mL, the “MIC E. cloacae, […] MH at pH 8.5” value (E. cloacae; CSV, […] MH at pH 8.5) was 4 ug/mL and the “MIC E. cloacae, full MH at pH 7.4” value (E. cloacae; CSV, full MH at pH 7.4) was 2 ug/mL. For the same substance, the “MIC E. cloacae” value (E. cloacae; MH pH 7.4, 16–20 h at 37 °C) was 2 µg/mL, the “MIC E. cloacae” value (E. cloacae; Table S3, […] MH at pH 8.5) was 4 µg/mL and the “MIC P. aeruginosa PA14 4.13, […] MH at pH 8.5” value (PA14 4.13 (phoQ); CSV, […] MH at pH 8.5) was 2 ug/mL. The “MIC P. aeruginosa PA14 4.13, full MH at pH 7.4” value (PA14 4.13 (phoQ); CSV, full MH at pH 7.4) was 4 ug/mL, the “MIC PA14 4.13 (phoQ)” value (PA14 4.13 (phoQ); MH pH 7.4, 16–20 h at 37 °C) was 4 µg/mL and the “MIC P. aeruginosa PA14 4.13” value (PA14 4.13 (phoQ); Table S3, […] MH at pH 8.5) was 2 µg/mL. The “MIC P. aeruginosa ZEM-1A, […] MH at pH 8.5” value ([1]; CSV, […] MH at pH 8.5) was 4 ug/mL, the “MIC P. aeruginosa ZEM-1A, full MH at pH 7.4” value ([1]; CSV, full MH at pH 7.4) was 2 ug/mL and the “MIC ZEM-1A” value ([1]; MH pH 7.4, 16–20 h at 37 °C) was 2 µg/mL. The “MIC P. aeruginosa ZEM-1A” value ([1]; Table S3, […] MH at pH 8.5) was 4 µg/mL, the “MIC P. aeruginosa PA14 2P4, […] MH at pH 8.5” value (PA14 2P4 (pmrB); […] MH at pH 8.5) was 3 ug/mL and the “MIC P. aeruginosa PA14 2P4, full MH at pH 7.4” value (PA14 2P4 (pmrB); full MH at pH 7.4) was 32 ug/mL.
